Source: PubChem BioAssay AID2060335 (Molecular Pharmacology Branch, DTP, NCI, 2025)

Test system: DU-145 multicell spheroids with HUVEC/MSC, viability
Test: Anticancer human tumor DU-145 cell line growth inhibition [IpAb];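 note: spheroids exposed to agents for seven days before measurement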;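 for viability, T/C: percent of DMSO vehicle control viability so 100% = untreated level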
Conditions: for IC50: curve of first compound; for viability, T/C: stronger effect = lower value
How it was run: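 Spheroids of 60% malignant cells, 25% HUVEC and 15% MSC were exposed to targeted agents combined with ipatasertib or abemaciclib. Doses started at or near clinical Cmax (10 microM when unknown) and fell in half-log steps.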

[1] = second compound 0.1 µM, first compound 0.0316 µM
[2] = second compound 0.1 µM, first compound 0.1 µM
[3] = second compound 0.316 µM, first compound 0.0316 µM
[4] = second compound 0.316 µM, first compound 0.1 µM
[5] = second compound 1 µM, first compound 0.0316 µM
[6] = second compound 1 µM, first compound 0.1 µM

Cn1cnc2c(F)c(Nc3ccc(Br)cc3Cl)c(C(=O)NOCCO)cc21 + CC(C)NCC(C(=O)N1CCN(c2ncnc3c2C(C)CC3O)CC1)c1ccc(Cl)cc1
IC50 (second compound 0.1 µM): 158 nM | IC50 (second compound 0.316 µM): < 9.49 nM | IC50 (second compound 1 µM): < 9.49 nM | IC50 (second compound 3.16 µM): < 9.49 nM | IC50 (second compound 10 µM): < 9.49 nM | viability, T/C (second compound 0.1 µM, first compound 0.00949 µM): 64.7% | viability, T/C (second compound 0.1 µM, first compound 0.03 µM): 62.4% | viability, T/C (second compound 0.1 µM, first compound 0.0949 µM): 52.3% | viability, T/C (second compound 0.1 µM, first compound 0.3 µM): 41.3% | viability, T/C (second compound 0.1 µM, first compound 0.949 µM): 46.5% | viability, T/C (second compound 0.1 µM, first compound 3 µM): 34.9% | viability, T/C (second compound 0.316 µM, first compound 0.00949 µM): 44.7% | viability, T/C (second compound 0.316 µM, first compound 0.03 µM): 41.9% | viability, T/C (second compound 0.316 µM, first compound 0.0949 µM): 38.8% | viability, T/C (second compound 0.316 µM, first compound 0.3 µM): 33.1% | viability, T/C (second compound 0.316 µM, first compound 0.949 µM): 32.9% | viability, T/C (second compound 0.316 µM, first compound 3 µM): 25% | viability, T/C (second compound 1 µM, first compound 0.00949 µM): 31.4% | viability, T/C (second compound 1 µM, first compound 0.03 µM): 30.4% | viability, T/C (second compound 1 µM, first compound 0.0949 µM): 27.6% | viability, T/C (second compound 1 µM, first compound 0.3 µM): 23% | viability, T/C (second compound 1 µM, first compound 0.949 µM): 21.5% | viability, T/C (second compound 1 µM, first compound 3 µM): 19.2% | viability, T/C (second compound 3.16 µM, first compound 0.00949 µM): 18.2% | viability, T/C (second compound 3.16 µM, first compound 0.03 µM): 17% | viability, T/C (second compound 3.16 µM, first compound 0.0949 µM): 16.5% | viability, T/C (second compound 3.16 µM, first compound 0.3 µM): 14.3% | viability, T/C (second compound 3.16 µM, first compound 0.949 µM): 14.5% | viability, T/C (second compound 3.16 µM, first compound 3 µM): 12% | viability, T/C (second compound 10 µM, first compound 0.00949 µM): 16.2% | viability, T/C (second compound 10 µM, first compound 0.03 µM): 13.7% | viability, T/C (second compound 10 µM, first compound 0.0949 µM): 13.3% | viability, T/C (second compound 10 µM, first compound 0.3 µM): 11.8% | viability, T/C (second compound 10 µM, first compound 0.949 µM): 11.4% | viability, T/C (second compound 10 µM, first compound 3 µM): 10.4%

CC(C)n1nc(-c2ccc3oc(N)nc3c2)c2c(N)ncnc21 + CCN1CCN(Cc2ccc(Nc3ncc(F)c(-c4cc(F)c5nc(C)n(C(C)C)c5c4)n3)nc2)CC1
IC50 (second compound 0.01 µM): 1.9 nM | IC50 (second compound 0.0316 µM): 1.49 nM | IC50 (second compound 0.1 µM): 1.46 nM | IC50 (second compound 0.316 µM): 1.84 nM | IC50 (second compound 1 µM): 1.86 nM | viability, T/C (second compound 0.01 µM, first compound 0.000316 µM): 97.3% | viability, T/C (second compound 0.01 µM, first compound 0.001 µM): 64.2% | viability, T/C (second compound 0.01 µM, first compound 0.00316 µM): 39.3% | viability, T/C (second compound 0.01 µM, first compound 0.01 µM): 21.2% | viability, T/C (second compound 0.01 µM, first compound 0.0316 µM): 11.3% | viability, T/C (second compound 0.01 µM, first compound 0.1 µM): 9.72% | viability, T/C (second compound 0.0316 µM, first compound 0.000316 µM): 82.2% | viability, T/C (second compound 0.0316 µM, first compound 0.001 µM): 56% | viability, T/C (second compound 0.0316 µM, first compound 0.00316 µM): 38.5% | viability, T/C (second compound 0.0316 µM, first compound 0.01 µM): 19.9% | viability, T/C (second compound 0.0316 µM, first compound 0.0316 µM): 11.7% | viability, T/C (second compound 0.0316 µM, first compound 0.1 µM): 8.9% | viability, T/C (second compound 0.1 µM, first compound 0.000316 µM): 76.9% | viability, T/C (second compound 0.1 µM, first compound 0.001 µM): 56.2% | viability, T/C (second compound 0.1 µM, first compound 0.00316 µM): 36.9% | viability, T/C (second compound 0.1 µM, first compound 0.01 µM): 23.9% | viability, T/C [1]: 12.9% | viability, T/C [2]: 9.08% | viability, T/C (second compound 0.316 µM, first compound 0.000316 µM): 69.2% | viability, T/C (second compound 0.316 µM, first compound 0.001 µM): 58.8% | viability, T/C (second compound 0.316 µM, first compound 0.00316 µM): 40.9% | viability, T/C (second compound 0.316 µM, first compound 0.01 µM): 31.5% | viability, T/C [3]: 16% | viability, T/C [4]: 12.5% | viability, T/C (second compound 1 µM, first compound 0.000316 µM): 60.3% | viability, T/C (second compound 1 µM, first compound 0.001 µM): 56.5% | viability, T/C (second compound 1 µM, first compound 0.00316 µM): 44.4% | viability, T/C (second compound 1 µM, first compound 0.01 µM): 33.8% | viability, T/C [5]: 25.1% | viability, T/C [6]: 20.3%

CCCS(=O)(=O)Nc1ccc(F)c(C(=O)c2c[nH]c3ncc(-c4ccc(Cl)cc4)cc23)c1F + CC(C)NCC(C(=O)N1CCN(c2ncnc3c2C(C)CC3O)CC1)c1ccc(Cl)cc1
IC50 (second compound 0.1 µM): > 10000 nM | IC50 (second compound 0.316 µM): > 10000 nM | IC50 (second compound 1 µM): < 31.6 nM | IC50 (second compound 3.16 µM): < 31.6 nM | IC50 (second compound 10 µM): < 31.6 nM | viability, T/C [1]: 88.2% | viability, T/C [2]: 91.3% | viability, T/C (second compound 0.1 µM, first compound 0.316 µM): 86.6% | viability, T/C (second compound 0.1 µM, first compound 1 µM): 96.3% | viability, T/C (second compound 0.1 µM, first compound 3.16 µM): 96.7% | viability, T/C (second compound 0.1 µM, first compound 10 µM): 68.2% | viability, T/C [3]: 53.9% | viability, T/C [4]: 64.1% | viability, T/C (second compound 0.316 µM, first compound 0.316 µM): 61.4% | viability, T/C (second compound 0.316 µM, first compound 1 µM): 76.4% | viability, T/C (second compound 0.316 µM, first compound 3.16 µM): 66.8% | viability, T/C (second compound 0.316 µM, first compound 10 µM): 43.6% | viability, T/C [5]: 33.1% | viability, T/C [6]: 31.8% | viability, T/C (second compound 1 µM, first compound 0.316 µM): 37.7% | viability, T/C (second compound 1 µM, first compound 1 µM): 41.2% | viability, T/C (second compound 1 µM, first compound 3.16 µM): 46.3% | viability, T/C (second compound 1 µM, first compound 10 µM): 29.9% | viability, T/C (second compound 3.16 µM, first compound 0.0316 µM): 22.3% | viability, T/C (second compound 3.16 µM, first compound 0.1 µM): 25.9% | viability, T/C (second compound 3.16 µM, first compound 0.316 µM): 24.4% | viability, T/C (second compound 3.16 µM, first compound 1 µM): 22.4% | viability, T/C (second compound 3.16 µM, first compound 3.16 µM): 23.6% | viability, T/C (second compound 3.16 µM, first compound 10 µM): 20.3% | viability, T/C (second compound 10 µM, first compound 0.0316 µM): 19.6% | viability, T/C (second compound 10 µM, first compound 0.1 µM): 20.1% | viability, T/C (second compound 10 µM, first compound 0.316 µM): 19.1% | viability, T/C (second compound 10 µM, first compound 1 µM): 19.7% | viability, T/C (second compound 10 µM, first compound 3.16 µM): 18.3% | viability, T/C (second compound 10 µM, first compound 10 µM): 14.2%
